From patent publication US20240261348A1, “LACTOBACILLUS PLANTARUM-DERIVED VESICLE AND USE THEREOF” (priority 2021, published 2024)

Tested on: AMPK (pAMPK) in muscle cells (L6 myotube cells)
Assay: AMPK activation in muscle cells (pAMPK western blotting)
Format: cell-based
Method: Therefore, an experiment was conducted to evaluate whether Lactobacillus plantarum-derived vesicles (Lp EV) affect cellular aging through AMPK activation in cells. To evaluate AMPK activation according to a concentration of treated Lactobacillus plantarum-derived vesicles in vitro, muscle cells (L6 myotube cells) were treated with the Lactobacillus plantarum-derived vesicles at 0, 0.1, 1, or 10 μg/mL for 1 hour. As a control, insulin (1 μM), which promotes aging and metformin (50 mM), which inhibits aging were used. After treating the cells with the drug, the difference in the amount of pAMPK, which is a key indicator in AMPK signaling, was measured through western blotting. […] To perform BCA quantitative analysis, the 1.5 mL microtube containing 5 μL of the lysed sample supernatant was taken out at room temperature, 20 μL of sterile distilled water was added thereto, and the resulting solution was vortexed and then spun down. […] After reacting in a 37° C. incubator for 30 minutes, absorbance was measured at 562 nm using a SpectraMax M3 microplate reader (Molecular Devices, USA). For western blotting, in the process of tris-glycine SDS-polyacrylamide gel electrophoresis, a 10% gel was prepared, and 50 μg of a protein for each sample was quantified and loaded. […]

Molecule | phosphorylation of AMPK (pAMPK) (metformin 50 mM for 1 hour (FIG. 8)) | phosphorylation of AMPK (pAMPK) (insulin 1 μM for 1 hour (FIG. 8))
CN(C)C(=N)N=C(N)N [metformin] | increased | –
insulin | – | inhibited
